From article PMC7407272, “Induction of Lysosome Membrane Permeabilization as a Therapeutic Strategy to Target Pancreatic Cancer Stem Cells” (Cancers, 2020)

Experiments:
Assay in all cases: KINOMEscan
ABL1(F317I)-P = target: T1, ABL1(F317I)-P (Homo sapiens, UniProt P00519, F317I); assay type: binding; details: read-out: % Ctrl
T1 construct: purchased DiscoveRx KINOMEscan

FLT3(ITD,D835V) = assay type: binding, human; details: 1 µM
PIK3CA(C420R) = target: T2, PIK3CA(C420R) (Homo sapiens, UniProt P42336, C420R); assay type: binding; details: read-out: % Ctrl
T2 construct: purchased DiscoveRx KINOMEscan
T2 sequence (P42336 whole entry C420R): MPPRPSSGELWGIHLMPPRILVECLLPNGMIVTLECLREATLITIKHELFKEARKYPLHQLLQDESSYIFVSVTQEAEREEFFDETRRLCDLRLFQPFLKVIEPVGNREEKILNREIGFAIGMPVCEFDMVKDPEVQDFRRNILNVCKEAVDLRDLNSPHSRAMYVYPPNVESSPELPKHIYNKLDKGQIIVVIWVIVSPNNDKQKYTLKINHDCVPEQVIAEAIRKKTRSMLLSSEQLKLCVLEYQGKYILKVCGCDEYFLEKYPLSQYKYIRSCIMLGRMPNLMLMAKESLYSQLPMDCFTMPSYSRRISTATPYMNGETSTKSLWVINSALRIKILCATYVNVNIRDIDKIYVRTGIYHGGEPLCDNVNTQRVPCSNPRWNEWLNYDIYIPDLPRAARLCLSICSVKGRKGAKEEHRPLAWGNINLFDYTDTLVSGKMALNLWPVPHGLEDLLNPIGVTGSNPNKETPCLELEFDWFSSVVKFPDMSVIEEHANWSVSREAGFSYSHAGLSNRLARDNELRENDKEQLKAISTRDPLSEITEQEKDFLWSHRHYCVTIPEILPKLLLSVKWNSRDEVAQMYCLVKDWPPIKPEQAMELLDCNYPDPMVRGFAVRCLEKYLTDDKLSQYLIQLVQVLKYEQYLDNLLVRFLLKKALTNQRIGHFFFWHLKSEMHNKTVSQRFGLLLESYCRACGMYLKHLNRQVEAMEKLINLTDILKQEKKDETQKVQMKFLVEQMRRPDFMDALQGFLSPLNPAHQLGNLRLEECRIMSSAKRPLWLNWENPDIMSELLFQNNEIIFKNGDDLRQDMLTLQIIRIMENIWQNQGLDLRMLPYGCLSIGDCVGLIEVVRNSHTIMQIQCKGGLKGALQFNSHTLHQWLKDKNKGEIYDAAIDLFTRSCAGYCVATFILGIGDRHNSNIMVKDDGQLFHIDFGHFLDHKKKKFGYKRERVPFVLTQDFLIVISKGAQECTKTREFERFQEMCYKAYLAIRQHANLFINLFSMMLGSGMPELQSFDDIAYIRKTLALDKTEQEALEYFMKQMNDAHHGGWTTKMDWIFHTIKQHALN

PIK3CA(E542K) = target: T3, PIK3CA(E542K) (Homo sapiens, UniProt P42336, E542K); assay type: binding; details: read-out: % Ctrl
T3 construct: purchased DiscoveRx KINOMEscan
T3 sequence (P42336 whole entry E542K): as the sequence (P42336 whole entry C420R) above, with R420C, E542K counted along it

ABL1-P = target: T4, ABL1-P (Homo sapiens, UniProt P00519); assay type: binding; details: read-out: % Ctrl
T4 construct: purchased DiscoveRx KINOMEscan

PIK3CA(H1047Y) = target: T5, PIK3CA(H1047Y) (Homo sapiens, UniProt P42336, H1047Y); assay type: binding; details: read-out: % Ctrl
T5 construct: purchased DiscoveRx KINOMEscan
T5 sequence (P42336 whole entry H1047Y): as the sequence (P42336 whole entry C420R) above, with R420C, H1047Y counted along it

AKT2 = target: T6, AKT2 (Homo sapiens, UniProt P31751); assay type: binding; details: read-out: % Ctrl
T6 construct: purchased DiscoveRx KINOMEscan

ALK(C1156Y) = target: T7, ALK(C1156Y) (Homo sapiens, UniProt Q9UM73, C1156Y); assay type: binding; details: read-out: % Ctrl
T7 construct: purchased DiscoveRx KINOMEscan

AMPK-alpha2 = target: T8, AMPK-alpha2 (Homo sapiens, UniProt P54646); assay type: binding; details: read-out: % Ctrl
T8 construct: purchased DiscoveRx KINOMEscan
T8 sequence (P54646 whole entry): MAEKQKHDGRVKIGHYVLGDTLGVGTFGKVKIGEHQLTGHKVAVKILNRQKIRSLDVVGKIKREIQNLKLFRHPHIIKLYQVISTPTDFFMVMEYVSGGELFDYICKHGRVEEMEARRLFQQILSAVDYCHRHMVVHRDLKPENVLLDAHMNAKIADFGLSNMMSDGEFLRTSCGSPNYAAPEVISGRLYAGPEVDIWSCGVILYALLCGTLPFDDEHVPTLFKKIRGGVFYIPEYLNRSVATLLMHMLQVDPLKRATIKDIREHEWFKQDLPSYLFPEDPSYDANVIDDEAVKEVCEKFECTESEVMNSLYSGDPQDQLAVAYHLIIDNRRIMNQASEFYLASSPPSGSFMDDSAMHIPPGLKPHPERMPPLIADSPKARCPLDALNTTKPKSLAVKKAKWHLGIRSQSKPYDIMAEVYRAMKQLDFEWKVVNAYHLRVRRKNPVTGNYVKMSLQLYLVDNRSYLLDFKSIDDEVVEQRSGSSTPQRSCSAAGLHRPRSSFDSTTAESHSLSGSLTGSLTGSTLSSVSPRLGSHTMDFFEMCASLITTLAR

HIPK3 = target: T9, HIPK3 (Homo sapiens, UniProt Q9H422); assay type: binding; details: read-out: % Ctrl
T9 construct: purchased DiscoveRx KINOMEscan

HPK1 = target: T10, HPK1 (Homo sapiens, UniProt Q92918); assay type: binding; details: read-out: % Ctrl
T10 construct: purchased DiscoveRx KINOMEscan

PKN1 = target: T11, PKN1 (Homo sapiens, UniProt Q16512); assay type: binding; details: read-out: % Ctrl
T11 construct: purchased DiscoveRx KINOMEscan

PLK2 = target: T12, PLK2 (Homo sapiens, UniProt Q9NYY3); assay type: binding; details: read-out: % Ctrl
T12 construct: purchased DiscoveRx KINOMEscan

INSR = target: T13, INSR (Homo sapiens, UniProt P06213); assay type: binding; details: read-out: % Ctrl
T13 construct: purchased DiscoveRx KINOMEscan

JAK3(JH1D.-cat.) = target: T14, JAK3(JH1D.-cat.) (Homo sapiens, UniProt P52333); assay type: binding; details: read-out: % Ctrl
T14 construct: JAK3(JH1D.-cat.); purchased DiscoveRx KINOMEscan

KIT(D816H) = target: T15, KIT(D816H) (Homo sapiens, UniProt P10721, D816H); assay type: binding; details: read-out: % Ctrl
T15 construct: purchased DiscoveRx KINOMEscan

RET = target: T16, RET (Homo sapiens, UniProt P07949); assay type: binding; details: read-out: % Ctrl
T16 construct: purchased DiscoveRx KINOMEscan

CAMKK1 = target: T17, CAMKK1 (Homo sapiens, UniProt Q8N5S9); assay type: binding; details: read-out: % Ctrl
T17 construct: purchased DiscoveRx KINOMEscan
T17 sequence (Q8N5S9 whole entry): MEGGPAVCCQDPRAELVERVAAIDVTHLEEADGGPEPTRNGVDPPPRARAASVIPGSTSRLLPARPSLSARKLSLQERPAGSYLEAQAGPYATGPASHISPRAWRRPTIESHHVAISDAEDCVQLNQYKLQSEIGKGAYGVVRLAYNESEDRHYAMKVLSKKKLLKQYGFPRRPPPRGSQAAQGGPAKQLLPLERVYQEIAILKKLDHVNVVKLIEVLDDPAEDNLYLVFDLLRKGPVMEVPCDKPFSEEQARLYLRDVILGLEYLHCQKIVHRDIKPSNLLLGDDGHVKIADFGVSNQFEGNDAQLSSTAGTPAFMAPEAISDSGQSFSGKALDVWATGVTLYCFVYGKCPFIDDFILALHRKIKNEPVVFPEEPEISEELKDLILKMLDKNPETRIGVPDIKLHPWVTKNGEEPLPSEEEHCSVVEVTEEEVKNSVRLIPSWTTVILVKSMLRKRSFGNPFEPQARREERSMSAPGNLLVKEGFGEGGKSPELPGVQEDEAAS

LIMK1 = target: T18, LIMK1 (Homo sapiens, UniProt P53667); assay type: binding; details: read-out: % Ctrl
T18 construct: purchased DiscoveRx KINOMEscan

CDK4-cyclinD3 = target: T19, CDK4-cyclinD3 (Homo sapiens, UniProt P11802); assay type: binding; details: read-out: % Ctrl
T19 construct: purchased DiscoveRx KINOMEscan

LRRK2(G2019S) = target: T20, LRRK2(G2019S) (Homo sapiens, UniProt Q5S007, G2019S); assay type: binding; details: read-out: % Ctrl
T20 construct: purchased DiscoveRx KINOMEscan

MAK = target: T21, MAK (Homo sapiens, UniProt P20794); assay type: binding; details: read-out: % Ctrl
T21 construct: purchased DiscoveRx KINOMEscan

RSK1(KD1-N-t.) = target: T22, RSK1(KD1-N-t.) (Homo sapiens, UniProt Q15418); assay type: binding; details: read-out: % Ctrl
T22 construct: RSK1(KD1-N-t.); purchased DiscoveRx KINOMEscan
T22 sequence (Q15418 1-391 limits assumed): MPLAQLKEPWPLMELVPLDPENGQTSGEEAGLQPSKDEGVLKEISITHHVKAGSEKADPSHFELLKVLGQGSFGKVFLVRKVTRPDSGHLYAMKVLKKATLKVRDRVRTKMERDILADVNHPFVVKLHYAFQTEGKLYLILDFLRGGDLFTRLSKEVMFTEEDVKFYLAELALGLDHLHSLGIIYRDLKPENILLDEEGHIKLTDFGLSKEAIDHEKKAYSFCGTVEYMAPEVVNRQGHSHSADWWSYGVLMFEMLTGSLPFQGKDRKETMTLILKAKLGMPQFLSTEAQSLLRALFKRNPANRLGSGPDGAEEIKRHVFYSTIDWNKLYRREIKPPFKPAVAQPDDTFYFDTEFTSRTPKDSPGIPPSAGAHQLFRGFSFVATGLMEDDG

CSF1R = target: T23, CSF1R (Homo sapiens, UniProt P07333); assay type: binding; details: read-out: % Ctrl
T23 construct: purchased DiscoveRx KINOMEscan

MARK3 = target: T24, MARK3 (Homo sapiens, UniProt P27448); assay type: binding; details: read-out: % Ctrl
T24 construct: purchased DiscoveRx KINOMEscan

MET(M1250T) = target: T25, MET(M1250T) (Homo sapiens, UniProt P08581, M1250T); assay type: binding; details: read-out: % Ctrl
T25 construct: purchased DiscoveRx KINOMEscan

DCAMKL2 = target: T26, DCAMKL2 (Homo sapiens, UniProt Q8N568); assay type: binding; details: read-out: % Ctrl
T26 construct: purchased DiscoveRx KINOMEscan

MINK = target: T27, MINK (Homo sapiens, UniProt Q8N4C8); assay type: binding; details: read-out: % Ctrl
T27 construct: purchased DiscoveRx KINOMEscan

DCAMKL3 = target: T28, DCAMKL3 (Homo sapiens, UniProt Q9C098); assay type: binding; details: read-out: % Ctrl
T28 construct: purchased DiscoveRx KINOMEscan

MKK7 = target: T29, MKK7 (Homo sapiens, UniProt O14733); assay type: binding; details: read-out: % Ctrl
T29 construct: purchased DiscoveRx KINOMEscan

MLK1 = target: T30, MLK1 (Homo sapiens, UniProt P80192); assay type: binding; details: read-out: % Ctrl
T30 construct: purchased DiscoveRx KINOMEscan

DMPK2 = target: T31, DMPK2 (Homo sapiens, UniProt Q6DT37); assay type: binding; details: read-out: % Ctrl
T31 construct: purchased DiscoveRx KINOMEscan

TRKB = target: T32, TRKB (Homo sapiens, UniProt Q16620); assay type: binding; details: read-out: % Ctrl
T32 construct: purchased DiscoveRx KINOMEscan
T32 sequence (Q16620 32-822): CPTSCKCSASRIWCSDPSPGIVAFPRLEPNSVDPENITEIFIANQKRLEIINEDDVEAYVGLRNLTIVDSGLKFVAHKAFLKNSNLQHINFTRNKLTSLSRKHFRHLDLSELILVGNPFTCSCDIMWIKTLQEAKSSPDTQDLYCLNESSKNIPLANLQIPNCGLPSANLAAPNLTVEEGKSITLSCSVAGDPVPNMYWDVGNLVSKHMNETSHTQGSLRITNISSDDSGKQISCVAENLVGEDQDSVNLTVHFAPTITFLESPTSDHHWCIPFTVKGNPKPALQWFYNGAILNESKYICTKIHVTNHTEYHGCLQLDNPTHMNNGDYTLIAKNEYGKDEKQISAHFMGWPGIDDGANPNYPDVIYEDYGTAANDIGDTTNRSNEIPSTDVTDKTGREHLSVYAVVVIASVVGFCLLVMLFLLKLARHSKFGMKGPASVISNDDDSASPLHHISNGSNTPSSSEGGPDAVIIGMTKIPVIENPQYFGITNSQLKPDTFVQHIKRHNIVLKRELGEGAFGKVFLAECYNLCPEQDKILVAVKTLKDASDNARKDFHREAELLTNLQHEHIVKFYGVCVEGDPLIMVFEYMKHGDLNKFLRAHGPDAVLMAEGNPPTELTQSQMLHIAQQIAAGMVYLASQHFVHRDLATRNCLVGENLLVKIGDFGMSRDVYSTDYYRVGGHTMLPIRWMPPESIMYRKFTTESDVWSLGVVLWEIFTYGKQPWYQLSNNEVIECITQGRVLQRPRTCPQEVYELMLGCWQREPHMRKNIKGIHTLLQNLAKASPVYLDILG

EGFR(L861Q) = target: T33, EGFR(L861Q) (Homo sapiens, UniProt P00533, L861Q); assay type: binding; details: read-out: % Ctrl
T33 construct: purchased DiscoveRx KINOMEscan

TYK2(JH2D.-pseudoK.) = target: T34, TYK2(JH2D.-pseudoK.) (Homo sapiens, UniProt P29597); assay type: binding; details: read-out: % Ctrl
T34 construct: TYK2(JH2D.-pseudoK.); purchased DiscoveRx KINOMEscan

NEK6 = target: T35, NEK6 (Homo sapiens, UniProt Q9HC98); assay type: binding; details: read-out: % Ctrl
T35 construct: purchased DiscoveRx KINOMEscan

EPHB4 = target: T36, EPHB4 (Homo sapiens, UniProt P54760); assay type: binding; details: read-out: % Ctrl
T36 construct: purchased DiscoveRx KINOMEscan

p38-alpha = target: T37, p38-alpha (Homo sapiens, UniProt Q16539); assay type: binding; details: read-out: % Ctrl
T37 construct: purchased DiscoveRx KINOMEscan
T37 sequence (Q16539 whole entry): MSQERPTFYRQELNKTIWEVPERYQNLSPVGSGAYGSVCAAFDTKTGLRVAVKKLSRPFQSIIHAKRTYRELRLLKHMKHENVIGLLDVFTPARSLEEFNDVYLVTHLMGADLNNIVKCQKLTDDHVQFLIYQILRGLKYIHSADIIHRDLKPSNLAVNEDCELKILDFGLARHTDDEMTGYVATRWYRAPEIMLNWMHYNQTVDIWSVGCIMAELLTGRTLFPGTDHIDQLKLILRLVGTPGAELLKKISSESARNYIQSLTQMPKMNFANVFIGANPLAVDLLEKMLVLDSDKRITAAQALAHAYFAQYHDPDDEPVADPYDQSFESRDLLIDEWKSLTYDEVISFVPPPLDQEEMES

ERBB3 = target: T38, ERBB3 (Homo sapiens, UniProt P21860); assay type: binding; details: read-out: % Ctrl
T38 construct: purchased DiscoveRx KINOMEscan

p38-delta = target: T39, p38-delta (Homo sapiens, UniProt O15264); assay type: binding; details: read-out: % Ctrl
T39 construct: purchased DiscoveRx KINOMEscan

PAK3 = target: T40, PAK3 (Homo sapiens, UniProt O75914); assay type: binding; details: read-out: % Ctrl
T40 construct: purchased DiscoveRx KINOMEscan
T40 sequence (O75914 whole entry): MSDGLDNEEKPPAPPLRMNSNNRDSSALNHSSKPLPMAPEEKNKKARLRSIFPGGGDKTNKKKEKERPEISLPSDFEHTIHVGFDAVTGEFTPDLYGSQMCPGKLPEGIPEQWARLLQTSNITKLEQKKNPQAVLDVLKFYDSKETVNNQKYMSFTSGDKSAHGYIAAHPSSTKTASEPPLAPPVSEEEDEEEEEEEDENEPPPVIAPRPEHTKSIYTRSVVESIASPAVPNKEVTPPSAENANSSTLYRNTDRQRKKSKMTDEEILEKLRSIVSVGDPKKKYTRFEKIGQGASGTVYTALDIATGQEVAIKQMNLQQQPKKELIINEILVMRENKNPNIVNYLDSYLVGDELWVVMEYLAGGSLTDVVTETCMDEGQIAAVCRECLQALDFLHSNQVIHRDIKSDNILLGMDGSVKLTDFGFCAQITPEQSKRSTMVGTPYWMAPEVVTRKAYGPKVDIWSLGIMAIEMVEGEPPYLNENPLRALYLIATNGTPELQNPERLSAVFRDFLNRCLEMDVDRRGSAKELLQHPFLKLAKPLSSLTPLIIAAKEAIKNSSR

PAK7 = target: T41, PAK7 (Homo sapiens, UniProt Q9P286); assay type: binding; details: read-out: % Ctrl
T41 construct: purchased DiscoveRx KINOMEscan
T41 sequence (Q9P286 whole entry): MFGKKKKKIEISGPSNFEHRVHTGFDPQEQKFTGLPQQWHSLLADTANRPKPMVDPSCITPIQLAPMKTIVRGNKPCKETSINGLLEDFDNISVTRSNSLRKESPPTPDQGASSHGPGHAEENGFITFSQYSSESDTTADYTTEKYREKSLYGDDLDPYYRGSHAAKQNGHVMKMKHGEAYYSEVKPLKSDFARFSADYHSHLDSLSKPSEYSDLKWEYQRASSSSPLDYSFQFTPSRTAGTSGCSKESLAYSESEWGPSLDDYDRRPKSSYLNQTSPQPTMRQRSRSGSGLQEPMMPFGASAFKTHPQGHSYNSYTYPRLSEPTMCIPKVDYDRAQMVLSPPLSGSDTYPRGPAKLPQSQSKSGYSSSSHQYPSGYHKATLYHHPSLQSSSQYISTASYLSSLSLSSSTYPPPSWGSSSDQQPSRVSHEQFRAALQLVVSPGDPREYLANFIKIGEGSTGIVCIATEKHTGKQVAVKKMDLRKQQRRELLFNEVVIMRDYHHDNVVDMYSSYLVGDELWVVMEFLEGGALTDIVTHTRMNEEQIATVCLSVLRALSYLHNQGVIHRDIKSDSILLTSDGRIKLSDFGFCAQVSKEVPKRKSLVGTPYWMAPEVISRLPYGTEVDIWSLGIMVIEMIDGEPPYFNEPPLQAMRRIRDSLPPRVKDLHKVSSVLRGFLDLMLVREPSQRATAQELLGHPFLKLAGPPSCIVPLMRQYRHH

## CN1CCC(CNc2ccc3ncc(C(=O)Nc4cccc(OC(F)(F)F)c4)n3n2)CC1 [Cpd 2]
ABL1(F317I)-P
  remaining binding at 1 µM: 94%
FLT3(ITD,D835V)
  % Ctrl: 9.1%
PIK3CA(C420R)
  remaining binding at 1 µM: 100%
PIK3CA(E542K)
  remaining binding at 1 µM: 92%
ABL1-P
  remaining binding at 1 µM: 95%
PIK3CA(H1047Y)
  remaining binding at 1 µM: 96%
AKT2
  remaining binding at 1 µM: 100%
ALK(C1156Y)
  remaining binding at 1 µM: 85%
AMPK-alpha2
  remaining binding at 1 µM: 100%
HIPK3
  remaining binding at 1 µM: 100%
HPK1
  remaining binding at 1 µM: 92%
PKN1
  remaining binding at 1 µM: 100%
PLK2
  remaining binding at 1 µM: 91%
INSR
  remaining binding at 1 µM: 100%
JAK3(JH1D.-cat.)
  remaining binding at 1 µM: 100%
KIT(D816H)
  remaining binding at 1 µM: 91%
RET
  remaining binding at 1 µM: 88%
CAMKK1
  remaining binding at 1 µM: 94%
LIMK1
  remaining binding at 1 µM: 79%
CDK4-cyclinD3
  remaining binding at 1 µM: 100%
LRRK2(G2019S)
  remaining binding at 1 µM: 93%
MAK
  remaining binding at 1 µM: 94%
RSK1(KD1-N-t.)
  remaining binding at 1 µM: 97%
CSF1R
  remaining binding at 1 µM: 100%
MARK3
  remaining binding at 1 µM: 100%
MET(M1250T)
  remaining binding at 1 µM: 100%
DCAMKL2
  remaining binding at 1 µM: 97%
MINK
  remaining binding at 1 µM: 94%
DCAMKL3
  remaining binding at 1 µM: 100%
MKK7
  remaining binding at 1 µM: 100%
MLK1
  remaining binding at 1 µM: 95%
DMPK2
  remaining binding at 1 µM: 97%
TRKB
  remaining binding at 1 µM: 89%
EGFR(L861Q)
  remaining binding at 1 µM: 94%
TYK2(JH2D.-pseudoK.)
  remaining binding at 1 µM: 12%
NEK6
  remaining binding at 1 µM: 100%
EPHB4
  remaining binding at 1 µM: 93%
p38-alpha
  remaining binding at 1 µM: 96%
ERBB3
  remaining binding at 1 µM: 100%
p38-delta
  remaining binding at 1 µM: 100%
PAK3
  remaining binding at 1 µM: 98%
PAK7
  remaining binding at 1 µM: 90%
